Experiment [1] deals with human dopamine D2Long (D2L) receptors (Homo sapiens, UniProt P14416).
The target in experiment [2] is T1, human dopamine D1 receptor (Homo sapiens, UniProt P21728).
T1 construct: A 1.4 Kb Hind III to Xho I fragment was subcloned into the vector pMMLV; expressed in transfected cells; host or cells: CHO cells, clone CHO-D1M#9 (plasmid pHD1MMLV), membranes
Kind of experiment: [3H]-SCH-23390 binding to cloned human dopamine D1 receptors (CHO cell membranes). To be noted: competitive binding, [3H]-SCH-23390, cloned human D1 in CHO membranes; read-out: D1 affinity Ki. As to the method:
[^3H]-SCH-23390 Binding to Cloned Human Dopamine D1 Receptors
Determination of relative binding affinity of potential neuropsychiatric and other agents for the human dopamine D1 receptor.
The human D, cDNA was obtained from the laboratory of Dr. Marc Caron in the vector pCMV5. A 1.4 Kb Hind III to Xho I fragment was subcloned into the vector pMMLV. The plasmid pHD1MMLV was then sequenced completely. Transient transfections in COS-7 cells were performed and D1 specific binding was obtained. The construct pHD1MMLV was then transfected stably into CHO cells and 72 G418-resistant clones were isolated. High expressors were identified by mRNA dot blot analysis. Six high expressors were further characterized by binding and then clone CHO-D1M#9 was chosen for detailed pharmacological characterization. This clone was then grown in suspension culture for the purpose of obtaining enough protein to accommodate several months of screening.
B. Cell Culture Conditions
• 1. […] Cells are transferred to suspension culture when at least […] are available (this allows for 300,000 cells/ml in a 50 ml spinner flask; this is the ideal suspension density). Cells are removed from flasks with trypsin, spun down at 1000×G and resuspended the pellet in fresh medium: • 50% CHO-SFM-II+50% Ham's F12 w/10% FBS (final FBS conc. 5%)+400 μg/ml G418+1% P/S. • 3. After the transfer to suspension culture, growth is monitored and cell viability is assessed using trypan blue exclusion. Total and viable cell count on 5 sectors of the hemocytometer are recorded. When the viable cell density reaches 600,000 cell/ml, the volume is doubled. • 4. After 1 week of growth in the 50/50 medium, the cells are spun down and transferred to a new spinner flask and replaced with 75% CHO-SFM II/25% Ham's F12+10% FBS plus the pen-strep and G418. Thereafter every 3 days, the medium is replaced with new medium containing a decreasing amount of FBS as follows:
• 5. The final maintenance culturing medium is made up as follows: • A stock mixture of 10 ml of pen-strep, 0.5 ml of […] (active; final concentration: 200 μg/ml) G418 and 1 ml of FBS are mixed and filtered and refrigerated. A volume (11.5 ml) of this mixture is added to a freshly opened 1 L bottle of CHO-SFM II. C. Membrane Preparation
Cells are harvested into 250 ml centrifuge tubes and spun down at 1200×G. The medium is removed and 100 ml PBS (phosphate-buffered saline) is added to each centrifuge tube; cells are resuspended and spun down again. The PBS is removed and the final pellet is homogenized with a polytron on ice at a medium setting.
The membrane suspension is diluted in water and samples (10, 50 and 100 μl; q.s. to 100 μl with water) are diluted with 100 μl of 1% SDS. The sample is vortexed and allowed to stand for 5 min. Two aliquots each of the solubilized protein sample are placed in clean 13×100 test tubes for the assay. Instructions are followed as outlined in the BioRad DC protein determination kit (Catalog # 500-0112). OD readings that fall between 0.1-0.5 (mid-range of standard curve) should typically be used for calculations. Protein concentrations are calculated from a standard curve using bovine serum albumin as standard by linear regression and interpolation.
Following cell harvesting and protein determination, the homogenate is diluted with 10% DMSO to the correct volume based on Bmax and relative size of individual experiments to be conducted. The concentrated protein is stored in cryogenic vials in aliquots of 1-1.5 ml. Samples may be stored in −80° C. freezer or in liquid nitrogen.

pKi: −log10 of the molar value. Where a name gives a salt, the structure may show the parent alone.

Broadly, the pKi is −log10 of the Ki, conventionally taken in molar units.

T1 sequence (P21728 whole entry, the tested form may be a part): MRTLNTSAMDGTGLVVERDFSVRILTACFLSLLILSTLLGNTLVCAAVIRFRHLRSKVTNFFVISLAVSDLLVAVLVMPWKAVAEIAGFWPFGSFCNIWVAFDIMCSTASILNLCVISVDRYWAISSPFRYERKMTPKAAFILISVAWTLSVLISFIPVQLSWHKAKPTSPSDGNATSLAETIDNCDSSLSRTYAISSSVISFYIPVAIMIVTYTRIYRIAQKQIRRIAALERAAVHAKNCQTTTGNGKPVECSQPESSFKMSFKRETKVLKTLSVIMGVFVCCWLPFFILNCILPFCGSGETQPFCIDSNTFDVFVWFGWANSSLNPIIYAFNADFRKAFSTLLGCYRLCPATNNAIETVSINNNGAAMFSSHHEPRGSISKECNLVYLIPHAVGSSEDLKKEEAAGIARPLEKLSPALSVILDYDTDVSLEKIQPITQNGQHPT
Sequence of human dopamine D2Long (D2L) receptors (P14416 whole entry): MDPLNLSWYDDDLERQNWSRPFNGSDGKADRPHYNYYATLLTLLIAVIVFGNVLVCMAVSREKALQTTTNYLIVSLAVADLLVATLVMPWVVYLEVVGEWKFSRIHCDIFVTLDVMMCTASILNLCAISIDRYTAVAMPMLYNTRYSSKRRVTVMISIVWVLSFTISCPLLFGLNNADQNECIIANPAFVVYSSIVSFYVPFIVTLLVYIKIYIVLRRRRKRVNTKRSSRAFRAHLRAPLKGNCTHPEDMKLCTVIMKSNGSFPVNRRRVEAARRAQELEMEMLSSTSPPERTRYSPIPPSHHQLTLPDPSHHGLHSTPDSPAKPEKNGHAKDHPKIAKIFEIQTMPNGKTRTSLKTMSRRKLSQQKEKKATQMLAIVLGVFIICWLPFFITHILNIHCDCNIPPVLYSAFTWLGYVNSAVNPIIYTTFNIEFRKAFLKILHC

On to `Cc1ccc2c(c1O)C[C@@H](C1CCN(Cc3ccccc3)CC1)O[C@H]2CNC1CCC1` [Example 177, (1R,3S)-3-(1-Benzyl-piperidin-4-yl)-1-cyclobutylaminomethyl-6-methyl-isochroman-5-ol], for which the pKi is 6.52 in experiment [1] and ≤ 5.00 in experiment [2].
Take `Cc1ccc2c(c1O)C[C@@H](C1CCN(Cc3ccccn3)CC1)O[C@H]2CN` [Example 52, (1R,3S)-1-Aminomethyl-6-methyl-3-(1-pyridin-2-ylmethyl-piperidin-4-yl)-isochroman-5-ol dihydrochloride]: the values for the pKi in experiment [1] and in experiment [2] were ≤ 5.00 and 6.95, respectively.
Consider `Cc1ccc2c(c1O)C[C@@H](C1CCN(S(=O)(=O)c3ccc(Cl)c(Cl)c3)CC1)O[C@H]2CN` [Example 150, (1R,3S)-1-Aminomethyl-3-[1-(3,4-dichloro-benzenesulfonyl)-piperidin-4-yl]-6-methyl-isochroman-5-ol hydrochloride], for which the pKi was ≤ 4.00 in experiment [1] and 6.59 in experiment [2].
For `CCCCS(=O)(=O)N1CCC([C@@H]2Cc3c(ccc(C)c3O)[C@H](CN)O2)CC1` [Example 154, (1R,3S)-1-Aminomethyl-3-[1-(butane-1-sulfonyl)-piperidin-4-yl]-6-methyl-isochroman-5-ol hydrochloride] the same measures were ≤ 4.00 and 6.57.
For the compound `Cc1ccc2c(c1O)C[C@@H](C1CCN(CC(C)(C)C)CC1)O[C@H]2CN` [Example 42, (1R,3S)-1-Aminomethyl-3-[1-(2,2-dimethyl-propyl)-piperidin-4-yl]-6-methyl-isochroman-5-ol dihydrochloride], the pKi in experiment [1] is ≤ 5.00; in experiment [2], 6.40.
Turning to `CCN(CC)C[C@@H]1O[C@H](C2CCN(Cc3ccccc3)CC2)Cc2c1ccc(C)c2O` [Example 170, (1R,3S)-3-(1-Benzyl-piperidin-4-yl)-1-diethylaminomethyl-6-methyl-isochroman-5-ol], the values for the pKi in experiment [1] and in experiment [2] were 6.42 and 5.78, respectively.
For `Cc1ccc2c(c1O)C[C@@H](C1CCN(Cc3ccc(C(F)(F)F)c(F)c3)CC1)O[C@H]2CN` [Example 82, (1R,3S)-1-Aminomethyl-3-[1-(3-fluoro-4-trifluoromethyl-benzyl)-piperidin-4-yl]-6-methyl-isochroman-5-ol dihydrochloride] the same measures were ≤ 5.00 and 7.81.
For `Cc1ccc(C(=O)NCCN2CCC([C@@H]3Cc4c(ccc(C)c4O)[C@H](CN)O3)CC2)cc1` [Example 190, N-{2-[4-((1R,3S)-1-Aminomethyl-5-hydroxy-6-methylisochroman-3-yl)-piperidin-1-yl]-ethyl}-4-methylbenzamide dihydrobromide], in that order: 6.44 and 7.34.
With `Cc1ccc2c(c1O)C[C@@H](C1CCN(S(=O)(=O)N(C)C)CC1)O[C@H]2CN` [Example 164, 4-((1R,3S)-1-Aminomethyl-5-hydroxy-6-methyl-isochroman-3-yl)-piperidine-1-sulfonic acid dimethylamide hydrochloride], the pKi in experiment [1] is ≤ 4.00; in experiment [2], 6.40.
As for `CCNC[C@@H]1O[C@H](C2CCN(Cc3ccccc3)CC2)Cc2c1ccc(C)c2O` [Example 172, (1R,3S)-3-(1-Benzyl-piperidin-4-yl)-1-ethylaminomethyl-6-methyl-isochroman-5-ol], the figures for the negative-log Ki (pKi) in experiment [1] and in experiment [2] were 6.55 and 6.28, respectively.
For `Cc1ccc2c(c1O)C[C@@H](C1CCN(Cc3ccccc3)CC1)O[C@H]2CN(C)C` [Example 169, (1R,3S)-3-(1-Benzyl-piperidin-4-yl)-1-dimethylaminomethyl-6-methyl-isochroman-5-ol], in that order: 6.76 and 6.80.
Regarding `Cc1ccc2c(c1O)C[C@@H](C1CCN(CC(C)C)CC1)O[C@H]2CN` [Example 40, (1R,3S)-1-Aminomethyl-3-(1-isobutyl-piperidin-4-yl)-6-methyl-isochroman-5-ol dihydrochloride], the results for the pKi in experiment [1] and in experiment [2] were ≤ 5.00 and 6.44, respectively.
For `CCN(CC)C(=O)N1CCC([C@@H]2Cc3c(ccc(C)c3O)[C@H](CN)O2)CC1` [Example 136, 4-((1R,3S)-1-Aminomethyl-5-hydroxy-6-methyl-isochroman-3-yl)-piperidine-1-carboxylic acid diethylamide hydrochloride], the figures for the pKi in experiment [1] and in experiment [2] were ≤ 4.00 and 6.79, respectively.
For `CCN(C)C[C@@H]1O[C@H](C2CCN(Cc3ccccc3)CC2)Cc2c1ccc(C)c2O` [Example 173, (1R,3S)-3-(1-Benzyl-piperidin-4-yl)-1-[(ethyl-methyl-amino)-methyl]-6-methyl-isochroman-5-ol], in that order: 6.62 and 6.37.
Turning to `Cc1ccc2c(c1O)C[C@@H](C1CCN(C(=O)OCc3ccccc3)CC1)O[C@H]2CN` [Example 122, 4-((1R,3S)-1-Aminomethyl-5-hydroxy-6-methyl-isochroman-3-yl)-piperidine-1-carboxylic acid benzyl ester hydrochloride], the pKi is 6.12 in experiment [1] and 7.04 in experiment [2].
For `CCCNC[C@@H]1O[C@H](C2CCN(Cc3ccccc3)CC2)Cc2c1ccc(C)c2O` [Example 174, (1R,3S)-3-(1-Benzyl-piperidin-4-yl)-6-methyl-1-propylaminomethyl-isochroman-5-ol] the same measures were 6.61 and 6.29.
For `CCCN(CCC)C[C@@H]1O[C@H](C2CCN(Cc3ccccc3)CC2)Cc2c1ccc(C)c2O` [Example 188, (1R,3S)-3-(1-Benzyl-piperidin-4-yl)-1-dipropylaminomethyl-6-methyl-isochroman-5-ol dihydrochloride], the results for the pKi in experiment [1] and in experiment [2] were 6.85 and 6.23, respectively.
On to `Cc1ccc2c(c1O)C[C@@H](C1CCN(S(=O)(=O)C(C)C)CC1)O[C@H]2CN` [Example 155, (1R,3S)-1-Aminomethyl-6-methyl-3-[1-(Propane-2-sulfonyl)-piperidin-4-yl]-isochroman-5-ol hydrochloride], for which the pKi in experiment [1] was ≤ 4.00; in experiment [2], 6.66.
Regarding `Cc1ccc2c(c1O)C[C@@H](C1CCN(S(=O)(=O)N3CCCCC3)CC1)O[C@H]2CN` [Example 165, (1R,3S)-1-Aminomethyl-6-methyl-3-[1-(piperidine-1-sulfonyl)-piperidin-4-yl]-isochroman-5-ol hydrochloride], the pKi was ≤ 5.00 in experiment [1] and 6.64 in experiment [2].
In the case of `Cc1ccc2c(c1O)C[C@@H](C1CCN(C(=O)N3CCCCC3)CC1)O[C@H]2CN` [Example 138, [4-((1R,3S)-1-Aminomethyl-5-hydroxy-6-methyl-isochroman-3-yl)-piperidin-1-yl]-piperidin-1-yl-methanone hydrochloride], the negative-log Ki (pKi) in experiment [1] is ≤ 4.00; in experiment [2], 6.70.
For `Cc1ccc2c(c1O)C[C@@H](C1CCN(S(=O)(=O)Cc3ccc(Cl)c(Cl)c3)CC1)O[C@H]2CN` [Example 160, (1R,3S)-1-Aminomethyl-3-[1-(3,4-dichloro-phenylmethanesulfonyl)-piperidin-4-yl]-6-methyl-isochroman-5-ol hydrochloride], in that order: ≤ 4.00 and 6.58.
For `Cc1ccc2c(c1O)C[C@@H](C1CCN(S(=O)(=O)c3ccccc3)CC1)O[C@H]2CN` [Example 141, (1R,3S)-1-Aminomethyl-3-(1-benzenesulfonyl-piperidin-4-yl)-6-methyl-isochroman-5-ol hydrochloride] the same measures were ≤ 4.00 and 6.71.

For the origin of these results see patent publication US7919508B2, “3-piperidinylisochroman-5-ols as dopamine agonists” (Aventis Pharmaceuticals Inc., priority 2004, dated 2011).
